Test results from PubChem BioAssay (NCI).
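A five-concentration, 48-hour dose response in 96-well plates underlies each endpoint, interpolated linearly between surrounding concentrations. Abbreviation: GI50, concentration required for 50% inhibition of growth. TGI denotes the concentration required for complete inhibition of growth.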

What was measured:
Experiment in all cases: growth of human tumour cells (NCI), 48 h
MALME-3M melanoma = system: MALME-3M melanoma
ACHN renal = system: ACHN renal
SN12C renal = system: SN12C renal
OVCAR-3 ovarian = system: OVCAR-3 ovarian
SF-539 CNS = system: SF-539 CNS
UACC-257 melanoma = system: UACC-257 melanoma
SR leukemia = system: SR leukemia
SNB-19 CNS = system: SNB-19 CNS
HCT-116 colon = system: HCT-116 colon
HT29 colon = system: HT29 colon

Row | Compound | TGI (MALME-3M melanoma) [µM] | TGI (ACHN renal) [µM] | TGI (SN12C renal) [µM] | TGI (OVCAR-3 ovarian) [µM] | TGI (SF-539 CNS) [µM] | TGI (UACC-257 melanoma) [µM] | TGI (SR leukemia) [µM] | TGI (SNB-19 CNS) [µM] | TGI (HCT-116 colon) [µM] | TGI (HT29 colon) [µM] | GI50 (MALME-3M melanoma) [µM] | GI50 (ACHN renal) [µM] | GI50 (SN12C renal) [µM] | GI50 (OVCAR-3 ovarian) [µM] | GI50 (SF-539 CNS) [µM] | GI50 (UACC-257 melanoma) [µM] | GI50 (SR leukemia) [µM] | GI50 (SNB-19 CNS) [µM] | GI50 (HCT-116 colon) [µM] | GI50 (HT29 colon) [µM]
1 | CC(C)C1NC(=O)[C@H](C)OC(=O)[C@@H](C(C)C)NC(=O)[C@@H](C)OC(=O)C(C(C)C)NC(=O)[C@H](C)OC1=O (stereo partly drawn) | > 100 | > 100 | > 100 | > 100 | > 81.7 | > 100 | 72.9 | > 100 | > 100 | > 100 | – | – | – | – | – | – | – | – | – | –
2 | Clc1nc(-c2ccccc2)nc(Cl)c1Cl | 17.6 | 9.33 | 31.4 | 21.7 | 33.9 | 28.2 | 7.53 | > 54.2 | 17 | 27.6 | – | – | – | – | – | – | – | – | – | –
3 | COC(=O)CCCNC(=O)C(=O)c1c(O)c(O)c(C(C)C)c2cc(C)c(-c3c(C)cc4c(C(C)C)c(O)c(O)c(C(=O)C(=O)NCCCC(=O)OC)c4c3O)c(O)c12 | 12.9 | 4.09 | 6.85 | 3.46 | 5.17 | 6.19 | 3.17 | 7.1 | 2.31 | 3.81 | 0.902 | 0.21 | 0.844 | 0.32 | 0.997 | 1.77 | 0.706 | 0.167 | 0.156 | 0.542
4 | COc1ccccc1N1CCN(CCCOc2ccc(C(=O)/C=C3/C(=O)Nc4ccccc43)cc2)CC1 | 22.9 | > 77.6 | > 100 | 42.3 | 40.4 | 35.5 | 14.4 | > 100 | 23.5 | 12.2 | 0.589 | 15.9 | 19.9 | 7.37 | 15.8 | 9.79 | 2.57 | 40.6 | 5.75 | 3.13
5 | CC1(C)OC2COC(c3[nH]nc4c(=O)[nH]c(=O)[nH]c34)C2O1 (stereo not drawn) | > 100 | > 100 | > 100 | > 100 | > 100 | > 100 | > 100 | > 100 | > 100 | > 100 | – | – | – | – | – | – | – | – | – | –
6 | CCN(CC)c1ccc(/C=N/NC(=O)c2ccccc2Nc2ccnc(C(F)(F)F)c2)c(O)c1 | 5.17 | > 24.6 | > 100 | > 100 | – | 1.72 | 0.728 | > 100 | > 100 | > 100 | 0.331 | 0.0834 | 0.278 | 0.0845 | 0.248 | 0.303 | 0.0721 | 0.363 | 0.0895 | 0.362
7 | CCCC(=O)Nc1c(I)cc(I)c(CC(CC)C(=O)O)c1I (stereo not drawn) | > 100 | > 100 | > 100 | > 100 | > 100 | > 100 | > 100 | > 100 | > 100 | > 100 | > 100 | > 100 | > 100 | > 100 | > 100 | > 100 | > 100 | > 100 | > 100 | > 100
8 | O=C(O)CNC(=O)C1NC(C(F)(F)F)(C(F)(F)F)OC1(C(F)(F)F)C(F)(F)F (stereo not drawn) | > 100 | > 100 | > 100 | > 100 | > 100 | > 100 | > 100 | > 100 | > 100 | > 100 | – | – | – | – | – | – | – | – | – | –
9 | O=C(COC(=O)c1cccc2c(=O)c3ccccc3[nH]c12)Nc1ccc(S(=O)(=O)Nc2ncccn2)cc1 | > 100 | > 100 | > 100 | 51.7 | 39.1 | > 100 | 91 | 93.2 | > 100 | > 100 | – | – | – | – | – | – | – | – | – | –
10 | COC1C(O)CC(OC2CC(OC3CC(O[C@@H]4C(=O)c5c(cc6cc(OC7CC(OC8CC(O)C(O)C(C)O8)C(O)C(C)O7)c(C)c(O)c6c5O)CC4[C@H](OC)[C@@H](O)C(C)=O)OC(C)C3O)OC(C)C2O)OC1C (stereo partly drawn) | 1.28 | – | > 33.3 | 0.597 | 0.463 | 0.0923 | 1.65 | > 33.3 | > 33.3 | 0.0295 | 0.0181 | 0.025 | 0.0192 | 0.0166 | 0.00902 | 0.0187 | 0.00624 | 0.0099 | 0.00621 | 0.00995
11 | O=S(=O)(NCCNc1cc(-c2cn(-c3ccccc3)nc2-c2cccc(O)c2)ccn1)c1ccc(Br)cc1 | 5.08 | 15.2 | 4.78 | 4.09 | 4.24 | 7.07 | 5.58 | 11.1 | 6.48 | 5.04 | 2.08 | 3.33 | 2.14 | 2.01 | 1.81 | 2.8 | 1.97 | 2.89 | 2.44 | 2.17
12 | NC(Cc1c[nH]c2cc(F)ccc12)C(=O)O (stereo not drawn) | 2320 | > 2500 | > 2500 | > 2500 | > 2500 | > 2500 | > 2500 | > 2500 | > 2500 | > 2500 | 859 | 1640 | 1330 | 792 | 890 | 1490 | 1040 | 1440 | 1030 | 850
13 | CC(=Nc1ccccc1)C1=C(O)C(Cc2ccc(F)cc2)NC1=O (stereo not drawn) | > 100 | > 100 | > 100 | 1.2 | 12.1 | > 100 | > 100 | > 100 | > 100 | > 100 | 0.661 | 8.24 | 5.76 | 0.323 | 1.36 | > 100 | 0.26 | 4.75 | 0.49 | 0.339
14 | Cc1ccc(-n2c3c(c4c(CN)c(O)ccc42)CCc2ccccc2C3=O)cc1 | 17.9 | 31.1 | 28.2 | 22.3 | 36.1 | 34.1 | 5.38 | 38.4 | 21.4 | > 100 | 4.58 | 16.7 | 14.2 | 10.2 | 16.6 | 18 | 2.33 | 19.9 | 9.24 | 30.3
